# Like-named read-outs stand apart in the source and are kept apart here.
# Columns and labels:
# [1] = system: Bacillus subtilis PCI 219; test: Antibacterial spectrum, standard serial dilution method; assay type: cell-based; conditions: read-out: Minimum Growth Inhibitory Concentration
# [2] = system: Bacillus cereus ATCC 1-702; test: as above; assay type: cell-based; conditions: read-out: Minimum Growth Inhibitory Concentration
# [3] = system: Escherichia coli NIHJ; test: as above; assay type: cell-based; conditions: read-out: Minimum Growth Inhibitory Concentration
# [4] = system: Escherichia coli K-12 ML1629; test: as above; assay type: cell-based; conditions: K12ML1629, E. coli K-12 ML1629, Muller-Hinton medium, 37° C., 18 hours, read-out: Minimum Growth Inhibitory Concentration
# [5] = system: Escherichia coli K-12 ML1630; test: as above; assay type: cell-based; conditions: K12ML1630, E. coli K-12 ML1630, Muller-Hinton medium, 37° C., 18 hours, read-out: Minimum Growth Inhibitory Concentration
# [6] = system: Escherichia coli K-12 ML1410 R81; test: as above; assay type: cell-based; conditions: K12ML1410R81, 18 h, read-out: Minimum Growth Inhibitory Concentration
# [7] = system: Escherichia coli K-12 LA290 R55; test: as above; assay type: cell-based; conditions: K12LA290R55, 18 h, read-out: Minimum Growth Inhibitory Concentration
# [8] = system: Escherichia coli K-12 LA290 R56; test: as above; assay type: cell-based; conditions: K12LA290R56, 18 h, read-out: Minimum Growth Inhibitory Concentration
# [9] = system: Escherichia coli W677; test: as above; assay type: cell-based; conditions: read-out: Minimum Growth Inhibitory Concentration
# [10] = system: Escherichia coli JR66/W677; test: as above; assay type: cell-based; conditions: read-out: Minimum Growth Inhibitory Concentration
# [11] = system: Escherichia coli K-12 C600 R135; test: as above; assay type: cell-based; conditions: K12C600R135, E. coli K-12 C600 R135, Muller-Hinton medium, 37° C., 18 hours, read-out: Minimum Growth Inhibitory Concentration
# [12] = system: Escherichia coli JR225; test: as above; assay type: cell-based; conditions: JR225, 18 h, read-out: Minimum Growth Inhibitory Concentration
# [13] = system: Klebsiella Pneumoniae PCI 602; test: as above; assay type: cell-based; conditions: read-out: Minimum Growth Inhibitory Concentration
# [14] = system: Klebsiella pneumoniae 22 = 3038; test: as above; assay type: cell-based; conditions: read-out: Minimum Growth Inhibitory Concentration
# [15] = system: Shigella dysernteriae JS11910; test: as above; assay type: cell-based; conditions: Muller-Hinton medium, 37° C., 18 hours, read-out: Minimum Growth Inhibitory Concentration
# [16] = system: Shibella flexneri 4b JS11811; test: as above; assay type: cell-based; conditions: 18 h, read-out: Minimum Growth Inhibitory Concentration
# [17] = system: Salmonella enteritidis 1891; test: as above; assay type: cell-based; conditions: Salmonella enterica, Muller-Hinton medium, 37° C., 18 hours, read-out: Minimum Growth Inhibitory Concentration
# [18] = system: Proteus vulgaris OX19; test: as above; assay type: cell-based; conditions: read-out: Minimum Growth Inhibitory Concentration
# [19] = system: Serratia marcescens; test: as above; assay type: cell-based; conditions: read-out: Minimum Growth Inhibitory Concentration
# [20] = system: Pseudomonas aeruguinosa A3; test: as above; assay type: cell-based, Pseudomonas aeruginosa; conditions: read-out: Minimum Growth Inhibitory Concentration
# [21] = system: Pseudomonas aeruguinosa 21-75; test: as above; assay type: cell-based, Pseudomonas aeruginosa; conditions: 2175, Muller-Hinton medium, 37° C., 18 hours, read-out: Minimum Growth Inhibitory Concentration
# [22] = system: Pseudomonas aeruguinosa PST1; test: as above; assay type: cell-based, Pseudomonas aeruginosa; conditions: Muller-Hinton medium, 37° C., 18 hours, read-out: Minimum Growth Inhibitory Concentration
# [23] = system: Pseudomonas aeruguinosa ROS 134/PU21; test: as above; assay type: cell-based, Pseudomonas aeruginosa; conditions: ROS134/PU21, 18 h, read-out: Minimum Growth Inhibitory Concentration
# [24] = system: Pseudomonas maltophilia GN907; test: as above; assay type: cell-based; conditions: Stenotrophomonas maltophilia, Muller-Hinton medium, 37° C., 18 hours, read-out: Minimum Growth Inhibitory Concentration
# [25] = system: resistant bacteria, Pseudomonas aeruginosa, resistant strains of gram-negative and gram-positive bacteria; conditions: background, earlier filings; cited from earlier work
# [26] = system: gram-negative and gram-positive bacteria; test: Antibacterial activity, overall result in words; assay type: cell-based; conditions: overall statement in words
# [27] = PCI219, Bacillus subtilis PCI 219, Muller-Hinton medium, 37° C., 18 hours
# [28] = ATCC1, Bacillus cereus ATCC 1-702, Muller-Hinton medium, 37° C., 18 hours
# [29] = E. coli W677, Muller-Hinton medium, 37° C., 18 hours
# [30] = E. coli JR66/W677, Muller-Hinton medium, 37° C., 18 hours
# [31] = Klebsiella Pneumoniae PCI 602, Muller-Hinton medium, 37° C., 18 hours
# [32] = Proteus vulgaris OX19, Muller-Hinton medium, 37° C., 18 hours
# [33] = Pseudomonas aeruguinosa A3, Muller-Hinton medium, 37° C., 18 hours
# [34] = Bacillus subtilis, PCI219, 18 h
Compound,"MIC [1, 27]","MIC [2, 28]",MIC [4],MIC [5],MIC [6],MIC [7],MIC [8],MIC [11],MIC [12],"MIC ([14]; Klebsiella pneumoniae, 18 h)",MIC [15],MIC [16],MIC [17],"MIC [20, 33]",MIC [21],MIC [22],MIC [23],MIC [24],MIC ([3]; 18 h),MIC ([19]; 18 h),further results
"CNCC1CCC(N)C(OC2C(N)CC(OC)C(N(C)C(=O)CN)C2O)O1 (stereo not drawn) [Istamycin B, istamycin B]",0.78 µg/mL,6.25 µg/mL,1.56 µg/mL,6.25 µg/mL,1.56 µg/mL,3.13 µg/mL,0.78 µg/mL,12.5 µg/mL,0.78 µg/mL,3.13 µg/mL,3.13 µg/mL,3.13 µg/mL,3.13 µg/mL,0.39 µg/mL,50 µg/mL,50 µg/mL,> 100 µg/mL,> 100 µg/mL,,,"MIC ([3]; E. coli NIHJ, Muller-Hinton medium, 37° C., 18 hours): 0.78 µg/mL; MIC [9, 29]: 0.78 µg/mL; MIC [10, 30]: 1.56 µg/mL; MIC [13, 31]: 1.56 µg/mL; MIC [18, 32]: 0.78 µg/mL; MIC ([19]; Muller-Hinton medium, 37° C., 18 hours): 6.25 µg/mL; antibacterial activity [25]: highest antibacterial activity"
"CNCC1CCC(O)C(OC2C(N)CC(OC)C(N(C)C(=O)CCN)C2O)O1 (stereo not drawn) [Compound No. 3, 4-N-(β-Alanyl)-2'-deamino-2'-hydroxyistamycin Bo]",,25 µg/mL,6.25 µg/mL,12.5 µg/mL,25 µg/mL,12.5 µg/mL,3.13 µg/mL,3.13 µg/mL,3.13 µg/mL,,3.13 µg/mL,6.25 µg/mL,6.25 µg/mL,,100 µg/mL,100 µg/mL,> 100 µg/mL,> 100 µg/mL,1.56 µg/mL,6.25 µg/mL,"MIC [1, 34]: 6.25 µg/mL; MIC ([9]; W677, 18 h): 3.13 µg/mL; MIC ([10]; JR66/W677, 18 h): 6.25 µg/mL; MIC [13, 31]: 12.5 µg/mL; MIC ([14]; Klebsiella pneumoniae 22 = 3038, Muller-Hinton medium, 37° C., 18 hours): 12.5 µg/mL; MIC ([18]; Proteus vulgaris, OX19, 18 h): 3.13 µg/mL; MIC ([20]; Pseudomonas, A3, 18 h): 3.13 µg/mL"
"CNCC1CCC(O)C(OC2C(N)CC(OC)C(N(C)C(=O)CN)C2O)O1 (stereo not drawn) [Compound No. 1, 2'-Deamino-2'-hydroxyistamycin B]",3.13 µg/mL,50 µg/mL,6.25 µg/mL,6.25 µg/mL,6.25 µg/mL,6.25 µg/mL,3.13 µg/mL,3.13 µg/mL,3.13 µg/mL,12.5 µg/mL,6.25 µg/mL,12.5 µg/mL,6.25 µg/mL,,> 100 µg/mL,100 µg/mL,> 100 µg/mL,> 100 µg/mL,1.56 µg/mL,12.5 µg/mL,"MIC ([9]; W677, 18 h): 1.56 µg/mL; MIC [10, 30]: 3.13 µg/mL; MIC ([13]; Klebsiella pneumoniae, 18 h): 6.25 µg/mL; MIC [18, 32]: 3.13 µg/mL; MIC ([20]; Pseudomonas, A3, 18 h): 6.25 µg/mL"
"CNCC1CCC(O)C(OC2C(N)CC(O)C(N(C)C(=O)CCN)C2O)O1 (stereo not drawn) [Compound No. 4, 4-N-(β-Alanyl)-2'-deamino-2'-hydroxy-3-O-demethylistamycin Bo]",,,3.13 µg/mL,6.25 µg/mL,6.25 µg/mL,6.25 µg/mL,3.13 µg/mL,3.13 µg/mL,1.56 µg/mL,3.13 µg/mL,3.13 µg/mL,6.25 µg/mL,3.13 µg/mL,0.39 µg/mL,12.5 µg/mL,12.5 µg/mL,100 µg/mL,> 100 µg/mL,1.56 µg/mL,3.13 µg/mL,"MIC [1, 34]: 3.13 µg/mL; MIC ([2]; Bacillus cereus, ATCC1, 18 h): 6.25 µg/mL; MIC ([9]; W677, 18 h): 1.56 µg/mL; MIC ([10]; JR66/W677, 18 h): 3.13 µg/mL; MIC ([13]; Klebsiella pneumoniae, 18 h): 3.13 µg/mL; MIC ([18]; Proteus vulgaris, OX19, 18 h): 1.56 µg/mL; antibacterial activity [26]: very much good antibacterial activity; antibacterial activity ([26]; listed as 4-N-(β-alanyl)-2'-deamino-2'-hydroxy-3-O-demethylistamycin Bo): antibacterial activity as high as that of istamycin B"
"CNCC1CCC(O)C(OC2C(N)CC(O)C(N(C)C(=O)CN)C2O)O1 (stereo not drawn) [Compound No. 2, 2'-Deamino-2'-hydroxy-3-O-demethylistamycin B]",3.13 µg/mL,,6.25 µg/mL,6.25 µg/mL,6.25 µg/mL,6.25 µg/mL,3.13 µg/mL,3.13 µg/mL,1.56 µg/mL,6.25 µg/mL,12.5 µg/mL,12.5 µg/mL,12.5 µg/mL,0.39 µg/mL,25 µg/mL,25 µg/mL,50 µg/mL,> 100 µg/mL,1.56 µg/mL,12.5 µg/mL,"MIC ([2]; Bacillus cereus, ATCC1, 18 h): 6.25 µg/mL; MIC [9, 29]: 3.13 µg/mL; MIC ([10]; JR66/W677, 18 h): 6.25 µg/mL; MIC ([13]; Klebsiella pneumoniae, 18 h): 6.25 µg/mL; MIC ([18]; Proteus vulgaris, OX19, 18 h): 1.56 µg/mL"

# Source: patent publication US4795743A, “2'-deamino-2'-hydroxyistamycin Bo derivatives of low toxicity” (Zaidan Hojin Biseibutsu Kagaku Kenkyu Kai, priority 1986, dated 1989)
